Source: patent US10226041B2, “Compositions and methods for improving the quality of processed sperm” (Inguran, LLC, priority 2011, dated 2019)
Several values for one entry are separate records, joined by “and”; a condition that tells them apart may be missing. Equal values may be shown once.

System: sex-sorted sperm cells
Assay: CASA post-thaw motility of sex sorted bull sperm treated with OSR
Format: cell-based, bovine
Set-up: key to BCF: beat cross frequency in Hz; key to ALH: lateral head displacement in μm; key to STR / LIN: percent; key to Motile: percent motile sperm; key to VAP / VSL / VCL: velocity in μm/s
Conditions: for ALH / BCF / LIN / Motile / Prog / STR / VAP / VCL / VSL: 3 hr post-thaw
Excerpt: 5. Sperm Motility Evaluations by CASA. A comparison of viewing chambers and slides can be done in a variety of IVOS instruments, which for example only can be a Hamilton-Thorne IVOS (Hamilton-Thorne, Beverly, Mass.). Instrument settings: image capture; frames per second=60; number of frames=30; cell detection; minimum contrast=50; minimum cell size=5; defaults, cell size=5; cell intensity=50; progressive cells, path velocity=50 um/s; straightness ≥70%; slow cells (um/s); average path velocity (VAP, <30 um/s), straight-line velocity (VSL, <15 um/s). The CASA motility variables measured can be a percentage of total motile sperm (motile), percentage of progressively motile sperm (progressive), VAO, VSL, curvilinear velocity (VCL, um/s), average lateral head displacement (ALK, um) and the number of times the sperm head crosses the mean path/s (BCF, Hz), straight-line sperm motility (STR, %), and linear sperm motility (LIN, %). See for instance, Lenz, R W, et al., J Anim Sci (2011) 89:383-388, incorporated by reference herein in its entirety.
One set of semen from each bull was used as a control while to the remaining sets of semen samples were added vitamin B12, as the antioxidant, at respective concentrations of 0.5 mg/ml and 0.25 mg/ml. For each sample, the same concentration of vitamin B12 was added (i) during the staining process, and (ii) in the catch fluid of the collection vessel. […] Sperm samples were sorted in “High Purity” mode, and the collected sex-sorted sperm were extended with a cryoextender, which in some cases again contained the same concentration of vitamin B12 and the samples were frozen. Three hours after thawing (which is a standard time frame to conduct quality control assessments on sorted frozen thawed sperm samples) the thawed samples were put through CASA, a machine that provides various data on sperm including motility and progressive motility information.
In the tables below: VAP (average path velocity (μm/s)); VSL (straight-line velocity (μm/s)); VCL (curvilinear velocity (μm/s)); ALH (average lateral head displacement (μm)); BCF (the number of times the sperm head crosses the mean path/s in Hz); STR (percent straight-line sperm motility); LIN (percent linear sperm motility); PIA (percent intact acrosomes); motile (percent motile sperm); and progressive (percent progressively motile sperm).
There is no correlation with regard to randomly assigned names such as “Bull A.” Bull A from Example 5 is not the same bull as Bull A from Example 7.
In both cases the concentration of the vitamin B12 was 1 mg/ml. For all other bulls in the table below unless otherwise indicated, the concentration of vitamin B12 added was also 1 mg/ml.
In an additional experiment, motility and progressive motility were checked 3.75 hours after thawing a sex sorted semen sample treated with the antioxidant. The OSR was not added to the control sample. The semen sample was derived from a single bull. 0.25 mg/ml concentration of vitamin B12 was added to the test sample during the staining step, the collecting step (in the catch fluid of the collecting vessel) and in the cryoprotectant extender prior to freezing the sample.
[…] The OSR was not added to the control samples. The semen samples were derived from two Holstein bulls.

[1] = 0.5 mg/ml, 2 step F, 3 hrs post-thaw, Bulls 1-5
[2] = .15 mg/ml, 3 step, Holstein, 1M/straw
[3] = .15 mg/ml, 3 step, Holstein, 2.1M/straw
[4] = .15 mg/ml, 3 step, Jersey, 2.1M/straw
[5] = .25 mg/ml, 3 step, Holstein, 1M/straw
[6] = .25 mg/ml, 3 step, Holstein, 2.1M/straw
[7] = .25 mg/ml, 3 step, Holstein, 5M/straw
[8] = .25 mg/ml, 3 step, Jersey, 2.1M/straw
[9] = .35 mg/ml, 3 step, Holstein, 1M/straw
[10] = .35 mg/ml, 3 step, Holstein, 2.1M/straw
[11] = .35 mg/ml, 3 step, Holstein, 5M/straw
[12] = .5 mg/ml, 3 step, Holstein, 5M/straw

vitamin B12
% Motility (0 hr, 1 step-stain (+−−), Bull C (Jersey), Trial 1): 80%
% Motility (0 hr, 1 step-stain (+−−), Bull C (Jersey), Trial 2): 61%
% Motility (0 hr, 2 step-stain (++−), Bull C (Jersey), Trial 1): 74%
% Motility (0 hr, 2 step-stain (++−), Bull C (Jersey), Trial 2): 57%
% Motility (0 hr, 3 step (+++), Bull C (Jersey), Trial 1): 70%
% Motility (0 hr, 3 step (+++), Bull C (Jersey), Trial 2): 76%
% Motility (0 hr, vitamin B12 0.5 mg/ml, 3 step, Bull A (Jersey)): 60%
% Motility (0 hr, vitamin B12 0.5 mg/ml, 3 step, Bull B (Holstein)): 79%
Motile (percent motile sperm) (0.5 mg/ml, 2 step F (catch fluid + cryoextender), 3 hrs post-thaw, Bulls 1-5): 70.5% and 74.5% and 81.5% and 51% and 63.5%
ALH (average lateral head displacement) [1]: 4 μm and 5 μm
BCF (times sperm head crosses the mean path/s) [1]: 21.5 Hz and 22.5 Hz and 26 Hz and 20.5 Hz and 23 Hz
LIN (percent linear sperm motility) [1]: 61% and 52.5% and 49% and 47%
STR (percent straight-line sperm motility) [1]: 85.5% and 84.5% and 83.5% and 84% and 86.5%
VAP (average path velocity) [1]: 77 μm/s and 56 μm/s and 60 μm/s and 50 μm/s
VCL (curvilinear velocity) [1]: 108 μm/s and 98 μm/s and 109 μm/s and 101 μm/s and 94 μm/s
VSL (straight-line velocity) [1]: 66 μm/s and 51 μm/s and 53 μm/s and 47 μm/s and 45 μm/s
% Motility (3 hr, 1 step-stain (+−−), Bull C (Jersey), Trial 1): 47%
% Motility (3 hr, 2 step-stain (++−), Bull C (Jersey), Trial 1): 57%
% Motility (3 hr, 2 step-stain (++−), Bull C (Jersey), Trial 2): 25%
% Motility (3 hr, 3 step (+++), Bull C (Jersey), Trial 1): 75%
% Motility (3 hr, 3 step (+++), Bull C (Jersey), Trial 2): 42%
% Motility (3 hr, vitamin B12 0.5 mg/ml, 3 step, Bull A (Jersey)): 42%
% Motility (3 hr, vitamin B12 0.5 mg/ml, 3 step, Bull B (Holstein)): 48%
ALH [2]: 4
BCF [2]: 12
LIN [2]: 53
Motile [2]: 48
Prog [2]: 18
STR [2]: 88
VAP [2]: 48
VCL [2]: 81
VSL [2]: 42
ALH [3]: 5
BCF [3]: 18
LIN [3]: 48
Motile [3]: 49
Prog [3]: 10
STR [3]: 86
VAP [3]: 44
VCL [3]: 79
VSL [3]: 38
ALH [4]: 6
BCF [4]: 15
LIN [4]: 47
Motile [4]: 25
Prog [4]: 4
STR [4]: 84
VAP [4]: 42
VCL [4]: 75
VSL [4]: 35
ALH [5]: 4
BCF [5]: 22
LIN [5]: 53
Motile [5]: 48
Prog [5]: 29
STR [5]: 87
VAP [5]: 55
VCL [5]: 92
VSL [5]: 47
ALH [6]: 5
BCF [6]: 20
LIN [6]: 50
Motile [6]: 48
Prog [6]: 18
STR [6]: 87
VAP [6]: 46
VCL [6]: 81
VSL [6]: 40
ALH [7]: 7
BCF [7]: 14
LIN [7]: 42
Motile [7]: 24
Prog [7]: 2
STR [7]: 70
VAP [7]: 41
VCL [7]: 69
VSL [7]: 28
ALH [8]: 5
BCF [8]: 20
LIN [8]: 50
Motile [8]: 48
Prog [8]: 20
STR [8]: 85
VAP [8]: 51
VCL [8]: 87
VSL [8]: 43
ALH [9]: 4
BCF [9]: 23
LIN [9]: 55
Motile [9]: 65
Prog [9]: 46
STR [9]: 88
VAP [9]: 58
VCL [9]: 94
VSL [9]: 51
ALH [10]: 5
BCF [10]: 23
LIN [10]: 53
Motile [10]: 46
Prog [10]: 30
STR [10]: 88
VAP [10]: 58
VCL [10]: 99
VSL [10]: 51
ALH [11]: 7
BCF [11]: 14
LIN [11]: 43
Motile [11]: 28
Prog [11]: 3
STR [11]: 69
VAP [11]: 41
VCL [11]: 68
VSL [11]: 32
ALH [12]: 6
BCF [12]: 15
LIN [12]: 43
Motile [12]: 14
Prog [12]: 3
STR [12]: 70
VAP [12]: 43
VCL [12]: 71
VSL [12]: 30
